tested on: CCO cells; test: Compounds cytotoxicity assay (CCK-8 cell viability); assay type: cell-based; details: channel catfish, 72 h
Experimental: The cytotoxicity effects of the selected compounds were detected in CCO cells by the cell viability assay. In brief, the CCO cells were seeded in 96-well plates and cultured to reach approximately 90% confluence in each well at 28°C. Subsequently, the monolayer cells were exposed to a maintenance medium with the tested compounds at different concentrations or DMSO for 72 h. Cell Counting Kit-8 (Beyotime, China) was used to measure the cell viability according to the manufacturer’s protocol after 72 h incubation. The optical density at 450 nm was measured using a Spark microplate reader (TECAN, Switzerland). Then, the maximum safe concentration (≥ 90% cell survived, SC90) of compounds to CCO cells was calculated according to the cell viability.
All data were analyzed with GraphPad Prism 8.0. Viral titers were log10 transformed prior to statistical analyses. The SC90 values were calculated using probit analysis. The data are expressed as the arithmetic mean ± standard deviation (SD) and were analyzed by one-way ANOVA with multiple comparisons test. Statistical significance was defined as *p < 0.05, **p < 0.01.
Figure 1 Cytotoxicity assay. The CCO cells were treated with 12 tested compounds with different concentrations in a 96-well plate for 72 h, and then the cell viability was measured by CCK-8. (A) Kaempferol, (B) Tannic acid, (C) P-Coumaric acid, (D) Magnolol, (E) Baicalein, (F) Genistein, (G) Mangiferin, (H) Rosmarinic acid, (I) Artemisinin, (J) Myricetin, (K) Ginkgolic acid, (L) Shikonin. Data represent mean ± SD normalized to values for DMSO treated group. The SC90 was analyzed and calculated using probit analysis. TEXT PRINTED IN THE PICTURE: (A) Kaempferol: SC90 = 47.53 μg/ml | (B) Tannic acid: SC90 = 90.02 μg/ml | (C) P-Coumaric acid: SC90 ≥500 μg/ml | (D) Magnolol: SC90 = 10.02 μg/ml | (E) Baicalein: SC90 = 29.73 μg/ml | (F) Genistein: SC90 = 13.66 μg/ml | (G) Mangiferin: SC90 ≥500 μg/ml | (H) Rosmarinic acid: SC90 = 46.37 μg/ml | (I) Artemisinin: SC90 ≥500 μg/ml | (J) Myricetin: SC90 = 346.19 μg/ml | (K) Ginkgolic acid: SC90 = 10.89 μg/ml | (L) Shikonin: SC90 = 54.44 μg/ml DOUBTS OF THE COPYIST ABOUT THIS PICTURE: All SC90 values are in small print, so 3, 5, 6, 8 and 9 are hard to tell apart / Kaempferol, SC90: 47.53 (5 or 3 uncertain) / Tannic acid, SC90: 90.02 (9 or 8 uncertain) / Baicalein, SC90: 29.73 (9 or 3 uncertain) / Genistein, SC90: 13.66 (3 and 6 uncertain) / Rosmarinic acid, SC90: 46.37 (6 and 3 uncertain) / Myricetin, SC90: 346.19 (3, 6 and 9 uncertain) / Ginkgolic acid, SC90: 10.89 (8 and 9 uncertain) / Shikonin, SC90: 54.44 (5 uncertain) / P-Coumaric acid, Mangiferin, Artemisinin, SC90: sign ≥ or >; 500 (5 uncertain)

Compound	SC90 (maximum safe concentration, ≥ 90% cell survived)
C[C@@H]1CC[C@H]2[C@@H](C)C(=O)O[C@@H]3O[C@@]4(C)CC[C@@H]1[C@]32OO4 [Artemisinin, reference compound]	≥ 500 µg/mL
O=c1cc(-c2ccccc2)oc2cc(O)c(O)c(O)c12 [Baicalein]	29.73 µg/mL
O=c1c(O)c(-c2cc(O)c(O)c(O)c2)oc2cc(O)cc(O)c12 [Myricetin]	346.19 µg/mL

From publication PMC10725991, “Kaempferol is a novel antiviral agent against channel catfish virus infection through blocking viral attachment and penetration in vitro” (Frontiers in Veterinary Science, 2023)
